Experimental data: BindingDB's records for doi:10.7270/Q2D798VP (Broad Institute, 2009)

Molecular target: T1, Zinc finger protein mex-5 (Caenorhabditis elegans, UniProt Q9XUB2)
T1 sequence (Q9XUB2 whole entry): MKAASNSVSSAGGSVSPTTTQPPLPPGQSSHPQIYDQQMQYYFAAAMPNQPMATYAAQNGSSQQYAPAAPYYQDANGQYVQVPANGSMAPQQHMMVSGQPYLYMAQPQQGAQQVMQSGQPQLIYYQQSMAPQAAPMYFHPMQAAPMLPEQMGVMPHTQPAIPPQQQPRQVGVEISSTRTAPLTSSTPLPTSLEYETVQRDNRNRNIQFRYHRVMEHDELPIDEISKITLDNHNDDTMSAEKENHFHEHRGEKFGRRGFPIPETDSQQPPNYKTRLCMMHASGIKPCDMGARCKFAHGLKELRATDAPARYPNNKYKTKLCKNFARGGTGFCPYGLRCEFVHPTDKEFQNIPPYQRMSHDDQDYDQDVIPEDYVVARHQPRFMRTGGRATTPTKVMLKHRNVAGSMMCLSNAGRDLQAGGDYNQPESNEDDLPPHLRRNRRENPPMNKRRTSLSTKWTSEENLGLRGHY
Assay: potency of MEX-5 RNA-binding blockers – biochemical, C. elegans, fluorescence polarization, dose response (AID 1960)

SMILES	EC50 [µM]
COc1ccc(C2C(C(=O)c3cccs3)C(=O)C(=O)N2c2nncs2)cc1 (stereo not drawn)	0.1
COc1ccc(C2C(C(C)=O)=C(C)N=c3sc(=Cc4cc(C)n(C)c4C)c(=O)n32)c(OC)c1 (stereo not drawn)	21
N#CC1C(=N)OC2=C(C(=O)CC(c3ccccc3)C2)C1c1ccc2c(c1)OCO2 (stereo not drawn)	> 300
Clc1ccc(C2=Nc3ncnn3C(c3ccco3)C2)cc1 (stereo not drawn)	3.36
Brc1ccc(C2=Nc3ncnn3C(c3ccco3)C2)cc1 (stereo not drawn)	18.1
CS(=O)(=O)Nc1nc2n(n1)C(c1ccccc1)CC(c1ccc(Br)cc1)=N2 (stereo not drawn)	6.39
COc1ccccc1-n1c(O)c2n(-c3ccc(C)cc3)[nH]c(C(=O)c3ccccc3)c-2c1=O	14.3
COc1cc(C2c3c(-c4cccnc4)n[nH]c3OC(=N)C2C#N)cc(Br)c1O (stereo not drawn)	> 300
O=C1N=c2ccccc2=C1NNc1ccc(F)cc1	> 300
c1ccc(CN=Nc2nc3ccccc3[nH]2)nc1	41.7
Cc1c(C(=O)NN=Cc2ccco2)[nH][nH]c1=O	> 300
COC1=CC([N+](=O)[O-])=CC(/C=N/NC(=O)CC#N)C1=O (stereo not drawn)	> 300
Cc1ccc(Cl)c2c1NC(=O)/C2=C1/NC(=S)NC1=O	0.294
Cc1c(C(=O)O)cccc1-n1c(C)cc(CN=Nc2ccc([N+](=O)[O-])cn2)c1C	50.2
COc1ccc(OC)c(NC=C2C(=O)NC(=S)N(Cc3ccccc3)C2=O)c1	> 300
C[C@H]1c2cccc(O)c2C(=O)C2C(=O)[C@]3(O)C(=O)C(C(N)=O)C(=O)[C@@H](N(C)C)[C@@H]3[C@@H](O)[C@@H]21 (stereo partly drawn)	37.9
COc1cc(C2C3=C(CC(C)(C)CC3=O)OC(=N)C2C#N)cc2c1OCO2 (stereo not drawn)	> 300
N#CC1C(=N)OC2=C(C(=O)CCC2)C1c1ccc2c(c1)OCO2 (stereo not drawn)	> 300
Cc1ccc(Cl)c2c1=NC(=O)C=2NNc1ccccc1	> 300
COc1cc(C2C3=C(CCCC3=O)OC(=N)C2C#N)cc2c1OCO2 (stereo not drawn)	> 300
Cc1ccc2c(c1)=C(NNc1ccccc1C)C(=O)N=2	> 300
O=C1NC(=O)N(c2cccc(F)c2)C(=O)C1=Cc1c[nH]c2ccccc12	36.6
COc1ccccc1OCC(=O)NN=Cc1c(O)ccc2ccccc12	131
N#CCC(=N)C(C#N)C#N [1,1,3-tricyano-2-amino-1-propene]	169
O=C(NN=CC1=CC(=O)C(=O)CC1)NN=CC1=CC(=O)C(=O)CC1 [1,3-bis[[(Z)-(3-hydroxy-4-oxocyclohexa-2,5-dien-1-ylidene)methyl]amino]urea]	4.86
CCN(CC)CCN1C(=O)C(=O)C(C(=O)c2cc3cccc(OC)c3o2)C1c1ccc(F)cc1 (stereo not drawn) [1-(2-Diethylamino-ethyl)-5-(4-fluoro-phenyl)-3-hydroxy-4-(7-methoxy-benzofuran-2-carbonyl)-1,5-dihydr o-pyrrol-2-one]	> 300
C=CCOc1cccc(C2C(C(=O)c3ccco3)C(=O)C(=O)N2Cc2ccco2)c1 (stereo not drawn) [1-(2-furanylmethyl)-3-[2-furanyl(oxo)methyl]-4-hydroxy-2-(3-prop-2-enoxyphenyl)-2H-pyrrol-5-one]	> 300

SMILES	EC50 [µM]
O=C1Nc2ccccc2/C1=N/NC(=S)Nc1ccc(O)cc1 [1-(4-hydroxyphenyl)-3-[(2-oxidanylideneindol-3-yl)amino]thiourea]	3.98
C=CCOc1ccc(C2C(C(=O)c3cccs3)C(=O)C(=O)N2c2nnc(C)s2)cc1 (stereo not drawn) [1-(5-methyl-1,3,4-thiadiazol-2-yl)-4-oxidanyl-2-(4-prop-2-enoxyphenyl)-3-thiophen-2-ylcarbonyl-2H-pyrrol-5-one]	3.06
COc1ccc(NC=C2C(=O)NC(=S)N(Cc3ccccc3)C2=O)c(OC)c1 [1-Benzyl-5-[1-(2,4-dimethoxy-phenylamino)-meth-(Z)-ylidene]-2-thioxo-dihydro-pyrimidine-4,6-dione]	> 300
CSc1nncc(C(C)N=Nc2ccccc2)n1 (stereo not drawn) [1-[3-(methylsulfanyl)-1,2,4-triazin-5-yl]ethanone phenylhydrazone]	> 300
C=CCSc1nnc(N2C(=O)C(=O)C(C(=O)c3ccco3)C2c2ccccc2F)s1 (stereo not drawn) [1-[5-(allylthio)-1,3,4-thiadiazol-2-yl]-5-(2-fluorophenyl)-4-(2-furoyl)-3-hydroxy-3-pyrrolin-2-one]	54.8
C=CCSc1nnc(N2C(=O)C(=O)C(C(=O)c3ccco3)C2c2ccc(F)cc2)s1 (stereo not drawn) [1-[5-(allylthio)-1,3,4-thiadiazol-2-yl]-5-(4-fluorophenyl)-4-(2-furoyl)-3-hydroxy-3-pyrrolin-2-one]	87.6
CC(C)c1ccc(C2C(C#N)=C3Sc4ccccc4N3C(=N)C2C#N)cc1 (stereo not drawn) [1-amino-3-(4-propan-2-ylphenyl)-3H-pyrido[2,1-b][1,3]benzothiazole-2,4-dicarbonitrile]	61.3
CC1(C)CC(=O)C2Sc3ccccc3N=C2C1 (stereo not drawn) [2,2-Dimethyl-2,3-dihydro-1H,10H-phenothiazin-4-one]	59.3
COc1cccc(C2C(C(=O)c3cc4cccc(OC)c4o3)C(=O)C(=O)N2c2cc(C)on2)c1OC (stereo not drawn) [2-(2,3-dimethoxyphenyl)-3-[(7-methoxy-1-benzofuran-2-yl)carbonyl]-1-(5-methyl-1,2-oxazol-3-yl)-4-oxidanyl-2H-pyrrol-5-one]	> 300
COc1ccc(OC)c(C2C(C(=O)c3ccco3)C(=O)C(=O)N2CCN2CCOCC2)c1 (stereo not drawn) [2-(2,5-dimethoxyphenyl)-3-(furan-2-carbonyl)-4-hydroxy-1-(2-morpholin-4-ylethyl)-2H-pyrrol-5-one]	> 300
COc1cccc(C2C3=C(CCCC3=O)OC(=N)C2C#N)c1OC(=O)c1ccco1 (stereo not drawn) [2-(2-amino-3-cyano-5-oxo-5,6,7,8-tetrahydro-4H-chromen-4-yl)-6-methoxyphenyl 2-furoate]	> 300
CC1(C)CC(=O)C2=C(C1)OC(=N)C(C#N)C2c1ccccc1OC(=O)N1CCOCC1 (stereo not drawn) [2-(2-amino-3-cyano-7,7-dimethyl-5-oxo-5,6,7,8-tetrahydro-4H-chromen-4-yl)phenyl morpholine-4-carboxylate]	> 300
CCCSc1nnc(N2C(=O)C(=O)C(C(=O)c3ccco3)C2c2ccccc2F)s1 (stereo not drawn) [2-(2-fluorophenyl)-3-(furan-2-carbonyl)-4-hydroxy-1-(5-propylsulfanyl-1,3,4-thiadiazol-2-yl)-2H-pyrrol-5-one]	> 300
COc1ccc(C2C(C(=O)c3cccs3)C(=O)C(=O)N2c2nnc(C)s2)cc1OC (stereo not drawn) [2-(3,4-dimethoxyphenyl)-1-(5-methyl-1,3,4-thiadiazol-2-yl)-4-oxidanyl-3-thiophen-2-ylcarbonyl-2H-pyrrol-5-one]	5.19
COc1ccc(C2C(C(=O)c3ccco3)C(=O)C(=O)N2c2nnc(C)s2)cc1OC (stereo not drawn) [2-(3,4-dimethoxyphenyl)-3-(furan-2-carbonyl)-4-hydroxy-1-(5-methyl-1,3,4-thiadiazol-2-yl)-2H-pyrrol-5-one]	297
Cc1ccc(C(=O)C2C(=O)C(=O)N(Cc3ccco3)C2c2cccc(Br)c2)o1 (stereo not drawn) [2-(3-bromophenyl)-1-(2-furanylmethyl)-4-hydroxy-3-[(5-methyl-2-furanyl)-oxomethyl]-2H-pyrrol-5-one]	35.6
CCCCOc1cccc(C2C(C(=O)c3ccc(C)o3)C(=O)C(=O)N2c2nnc(C)s2)c1 (stereo not drawn) [2-(3-butoxyphenyl)-3-(5-methylfuran-2-yl)carbonyl-1-(5-methyl-1,3,4-thiadiazol-2-yl)-4-oxidanyl-2H-pyrrol-5-one]	77.4
CSc1nnc(N2C(=O)C(=O)C(C(=O)c3ccco3)C2c2cccc(Cl)c2)s1 (stereo not drawn) [2-(3-chlorophenyl)-3-(furan-2-carbonyl)-4-hydroxy-1-(5-methylsulfanyl-1,3,4-thiadiazol-2-yl)-2H-pyrrol-5-one]	14.3
CCOc1cccc(C2C(C(=O)c3ccc(C)o3)C(=O)C(=O)N2c2nccs2)c1 (stereo not drawn) [2-(3-ethoxyphenyl)-3-(5-methylfuran-2-yl)carbonyl-4-oxidanyl-1-(1,3-thiazol-2-yl)-2H-pyrrol-5-one]	1.27
Cc1cccc(Nc2nc(O)cs2)c1 [2-(3-methylanilino)-1,3-thiazol-4-one]	> 300
COCCNC(=O)Cn1cc(C=C2C(=O)NC(=O)N(c3ccccc3F)C2=O)c2ccccc21 [2-(3-{(E)-[1-(2-fluorophenyl)-2,4,6-trioxotetrahydropyrimidin-5(2H)-ylidene]methyl}-1H-indol-1-yl)-N-(2-methoxyethyl)acetamide]	8.13
Cc1nnc(N2C(=O)C(=O)C(C(=O)c3ccco3)C2c2ccc(F)cc2)s1 (stereo not drawn) [2-(4-fluorophenyl)-3-(furan-2-carbonyl)-4-hydroxy-1-(5-methyl-1,3,4-thiadiazol-2-yl)-2H-pyrrol-5-one]	32.9
CSc1nnc(N2C(=O)C(=O)C(C(=O)c3ccco3)C2c2ccc(F)cc2)s1 (stereo not drawn) [2-(4-fluorophenyl)-3-(furan-2-carbonyl)-4-hydroxy-1-(5-methylsulfanyl-1,3,4-thiadiazol-2-yl)-2H-pyrrol-5-one]	82.8
Cc1[nH]c2ccccc2c1/C=C1\N=C(c2ccc(F)cc2)OC1=O [2-(4-fluorophenyl)-4-[(2-methyl-1H-indol-3-yl)methylene]-1,3-oxazol-5(4H)-one]	5.53
O=C1c2cccc([N+](=O)[O-])c2C(=O)N1n1c(O)csc1=S [2-(4-keto-2-thioxo-thiazolidin-3-yl)-4-nitro-isoindoline-1,3-quinone]	24.8
Cc1nnc(N2C(=O)C(=O)C(C(=O)c3ccco3)C2c2ccc(C(C)(C)C)cc2)s1 (stereo not drawn) [2-(4-tert-butylphenyl)-3-(furan-2-carbonyl)-4-hydroxy-1-(5-methyl-1,3,4-thiadiazol-2-yl)-2H-pyrrol-5-one]	7.86
